Reference: ChEMBL document CHEMBL4507261, “Data for DCP probe A-192621” (2021)

Key:
[1] = tested on: Tyrosine-protein kinase ABL1 (Homo sapiens), P00519 [F317I]; details: Compound concentration 1000.0 nM
[2] = target: Serine/threonine-protein kinase TAO2 (Homo sapiens) (UniProt Q9UL54); details: Compound concentration 1000.0 nM
[3] = target: Macrophage colony-stimulating factor 1 receptor (Homo sapiens) (UniProt P07333); details: Compound concentration 1000.0 nM
[4] = target: Serine/threonine-protein kinase Nek11 (Homo sapiens) (UniProt Q8NG66); details: Compound concentration 1000.0 nM
[5] = tested on: Tyrosine-protein kinase ABL1 (Homo sapiens), P00519 [F317I]; details: Compound concentration 1000.0 nM; remark: listed apart in the source
[6] = target: Serine/threonine-protein kinase 17A (Homo sapiens) (UniProt Q9UEE5); details: Compound concentration 1000.0 nM
[7] = target: T1, Alpha-2A adrenergic receptor (Homo sapiens) (UniProt P08913); experiment: Alpha2A (h) Eurofins-Cerep binding assay; details: filed as antagonist, Compound concentration 10.0 uM
T1 sequence (whole entry): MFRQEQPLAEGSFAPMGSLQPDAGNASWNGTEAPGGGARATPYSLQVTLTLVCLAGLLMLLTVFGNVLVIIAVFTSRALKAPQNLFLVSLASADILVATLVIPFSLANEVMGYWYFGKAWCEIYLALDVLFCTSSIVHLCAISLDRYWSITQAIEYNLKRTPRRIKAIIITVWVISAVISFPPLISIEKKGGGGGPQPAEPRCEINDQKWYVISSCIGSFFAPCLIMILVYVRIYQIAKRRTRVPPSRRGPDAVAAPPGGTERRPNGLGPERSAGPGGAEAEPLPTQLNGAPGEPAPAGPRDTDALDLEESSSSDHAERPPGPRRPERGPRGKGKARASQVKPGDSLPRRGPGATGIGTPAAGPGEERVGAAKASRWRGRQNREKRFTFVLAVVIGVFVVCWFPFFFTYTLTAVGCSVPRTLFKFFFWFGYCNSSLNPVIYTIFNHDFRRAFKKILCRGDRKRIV

[8] = target: Sodium-dependent dopamine transporter (Homo sapiens) (UniProt Q01959); experiment: dopamine transporter (h) Eurofins-Cerep binding assay; design: ligand concentration 4 nM; details: filed as antagonist, Compound concentration 10.0 uM
[9] = target: Calcium/calmodulin-dependent protein kinase type IV (Homo sapiens) (UniProt Q16566); details: Compound concentration 1000.0 nM
[10] = target: Serine/threonine-protein kinase 26 (Homo sapiens) (UniProt Q9P289); details: Compound concentration 1000.0 nM
[11] = target: Tyrosine-protein kinase receptor Tie-1 (Homo sapiens) (UniProt P35590); details: Compound concentration 1000.0 nM
[12] = tested on: Hepatocyte growth factor receptor (Homo sapiens), P08581 [Y1235D]; details: Compound concentration 1000.0 nM
[13] = target: Serine/threonine-protein kinase PLK1 (Homo sapiens) (UniProt P53350); details: Compound concentration 1000.0 nM
[14] = target: Serine/threonine-protein kinase PAK 3 (Homo sapiens) (UniProt O75914); details: Compound concentration 1000.0 nM
[15] = target: Serine/threonine-protein kinase Nek5 (Homo sapiens) (UniProt Q6P3R8); details: Compound concentration 1000.0 nM
[16] = target: Tumor necrosis factor (Homo sapiens) (UniProt P01375); experiment: TNF-alpha (h) Eurofins-Cerep binding assay; details: filed as agonist, Compound concentration 10.0 uM
[17] = target: Serine/threonine-protein kinase MRCK beta (Homo sapiens) (UniProt Q9Y5S2); details: Compound concentration 1000.0 nM
[18] = target: Calcitonin-gene-related peptide receptor, CALCRL/RAMP1 (Homo sapiens) (UniProt O60894+Q16602); experiment: CGRP (h) Eurofins-Cerep binding assay; type: protein-complex assay; design: ligand concentration 0.03 nM; details: filed as agonist, Compound concentration 10.0 uM
[19] = target: Serine/threonine-protein kinase 24 (Homo sapiens) (UniProt Q9Y6E0); details: Compound concentration 1000.0 nM
[20] = target: Serine/threonine-protein kinase SIK3 (Homo sapiens) (UniProt Q9Y2K2); details: Compound concentration 1000.0 nM
[21] = target: Cannabinoid receptor 1 (Homo sapiens) (UniProt P21554); experiment: CB1 (h) Eurofins-Cerep binding assay; design: ligand concentration 0.5 nM; details: filed as agonist, Compound concentration 10.0 uM
[22] = tested on: Phosphatidylinositol 4,5-bisphosphate 3-kinase catalytic subunit alpha isoform (Homo sapiens), P42336 [I800L]; details: Compound concentration 1000.0 nM
[23] = tested on: Tyrosine-protein kinase ABL1 (Homo sapiens), P00519 [Y253F]; details: Compound concentration 1000.0 nM
[24] = target: Protein-tyrosine kinase 2-beta (Homo sapiens) (UniProt Q14289); details: Compound concentration 1000.0 nM
[25] = target: Serine/threonine-protein kinase Nek4 (Homo sapiens) (UniProt P51957); details: Compound concentration 1000.0 nM
[26] = target: Death-associated protein kinase 1 (Homo sapiens) (UniProt P53355); details: Compound concentration 1000.0 nM
[27] = target: Serine/threonine-protein kinase SIK1 (Homo sapiens) (UniProt P57059); details: Compound concentration 1000.0 nM
[28] = target: Muscarinic acetylcholine receptor M3 (Homo sapiens) (UniProt P20309); experiment: M3 (h) Eurofins-Cerep binding assay; design: ligand concentration 0.2 nM; details: filed as antagonist, Compound concentration 10.0 uM
[29] = target: Tyrosine-protein kinase Tec (Homo sapiens) (UniProt P42680); details: Compound concentration 1000.0 nM
[30] = target: Serine/threonine-protein kinase 36 (Homo sapiens) (UniProt Q9NRP7); details: Compound concentration 1000.0 nM
[31] = target: TGF-beta receptor type-2 (Homo sapiens) (UniProt P37173); details: Compound concentration 1000.0 nM
[32] = tested on: Tyrosine-protein kinase ABL1 (Homo sapiens), P00519 [F317L]; details: Compound concentration 1000.0 nM
[33] = target: Serine/threonine-protein kinase NLK (Homo sapiens) (UniProt Q9UBE8); details: Compound concentration 1000.0 nM
[34] = target: Homeodomain-interacting protein kinase 1 (Homo sapiens) (UniProt Q86Z02); details: Compound concentration 1000.0 nM
[35] = target: Mitogen-activated protein kinase 8 (Homo sapiens) (UniProt P45983); details: Compound concentration 1000.0 nM
[36] = target: Serine/threonine-protein kinase 33 (Homo sapiens) (UniProt Q9BYT3); details: Compound concentration 1000.0 nM
[37] = target: Translocator protein (Rattus norvegicus) (UniProt P16257); experiment: BZD (peripheral) Eurofins-Cerep binding assay; design: ligand concentration 0.2 nM; details: filed as antagonist, Compound concentration 10.0 uM
[38] = target: Discoidin domain-containing receptor 2 (Homo sapiens) (UniProt Q16832); details: Compound concentration 1000.0 nM
[39] = target: Dual specificity mitogen-activated protein kinase kinase 6 (Homo sapiens) (UniProt P52564); details: Compound concentration 1000.0 nM

Protein-tyrosine kinase 2-beta (Homo sapiens), sequence (Q14289 whole entry, looked up): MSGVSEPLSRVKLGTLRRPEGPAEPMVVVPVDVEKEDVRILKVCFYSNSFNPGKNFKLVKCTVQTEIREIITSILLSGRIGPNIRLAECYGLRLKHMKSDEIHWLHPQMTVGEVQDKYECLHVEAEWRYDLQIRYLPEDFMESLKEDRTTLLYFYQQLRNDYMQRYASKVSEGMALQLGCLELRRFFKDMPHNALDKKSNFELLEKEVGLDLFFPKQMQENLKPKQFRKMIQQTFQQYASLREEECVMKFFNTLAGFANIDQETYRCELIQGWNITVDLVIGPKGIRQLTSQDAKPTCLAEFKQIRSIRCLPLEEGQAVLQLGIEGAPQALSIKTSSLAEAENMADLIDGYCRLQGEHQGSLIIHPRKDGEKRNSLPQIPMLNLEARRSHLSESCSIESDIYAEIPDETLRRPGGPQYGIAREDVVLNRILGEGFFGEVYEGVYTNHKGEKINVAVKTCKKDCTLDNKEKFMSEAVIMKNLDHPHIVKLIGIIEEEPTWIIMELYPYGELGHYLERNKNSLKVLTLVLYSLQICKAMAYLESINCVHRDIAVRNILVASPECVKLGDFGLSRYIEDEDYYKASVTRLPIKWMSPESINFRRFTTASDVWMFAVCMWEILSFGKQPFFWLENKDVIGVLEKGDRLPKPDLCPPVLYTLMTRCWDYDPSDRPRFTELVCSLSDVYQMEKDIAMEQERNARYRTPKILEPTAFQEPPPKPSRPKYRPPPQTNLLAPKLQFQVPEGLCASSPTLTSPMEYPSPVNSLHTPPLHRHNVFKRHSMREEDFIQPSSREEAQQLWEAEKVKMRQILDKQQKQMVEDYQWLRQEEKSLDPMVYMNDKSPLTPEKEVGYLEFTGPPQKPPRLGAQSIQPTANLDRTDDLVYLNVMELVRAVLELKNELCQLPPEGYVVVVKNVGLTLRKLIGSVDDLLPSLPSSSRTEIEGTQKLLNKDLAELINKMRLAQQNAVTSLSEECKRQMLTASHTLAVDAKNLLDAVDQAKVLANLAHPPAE
Serine/threonine-protein kinase PAK 3 (Homo sapiens), sequence (O75914 whole entry, looked up): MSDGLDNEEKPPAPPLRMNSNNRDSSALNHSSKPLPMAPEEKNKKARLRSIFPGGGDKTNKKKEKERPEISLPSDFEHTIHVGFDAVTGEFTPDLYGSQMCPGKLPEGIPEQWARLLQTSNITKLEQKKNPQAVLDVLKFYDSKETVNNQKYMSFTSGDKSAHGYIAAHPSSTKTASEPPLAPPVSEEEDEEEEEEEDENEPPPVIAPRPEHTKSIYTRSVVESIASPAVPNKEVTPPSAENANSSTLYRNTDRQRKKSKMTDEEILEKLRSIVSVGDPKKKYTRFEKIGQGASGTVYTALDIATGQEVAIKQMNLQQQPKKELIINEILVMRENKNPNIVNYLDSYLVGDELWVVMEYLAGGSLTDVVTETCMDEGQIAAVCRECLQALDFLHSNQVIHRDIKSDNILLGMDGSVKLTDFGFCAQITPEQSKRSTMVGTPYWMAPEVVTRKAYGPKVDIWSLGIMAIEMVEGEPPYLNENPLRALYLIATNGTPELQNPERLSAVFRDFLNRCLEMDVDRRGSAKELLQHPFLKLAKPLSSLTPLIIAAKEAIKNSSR
Serine/threonine-protein kinase SIK1 (Homo sapiens), sequence (P57059 whole entry): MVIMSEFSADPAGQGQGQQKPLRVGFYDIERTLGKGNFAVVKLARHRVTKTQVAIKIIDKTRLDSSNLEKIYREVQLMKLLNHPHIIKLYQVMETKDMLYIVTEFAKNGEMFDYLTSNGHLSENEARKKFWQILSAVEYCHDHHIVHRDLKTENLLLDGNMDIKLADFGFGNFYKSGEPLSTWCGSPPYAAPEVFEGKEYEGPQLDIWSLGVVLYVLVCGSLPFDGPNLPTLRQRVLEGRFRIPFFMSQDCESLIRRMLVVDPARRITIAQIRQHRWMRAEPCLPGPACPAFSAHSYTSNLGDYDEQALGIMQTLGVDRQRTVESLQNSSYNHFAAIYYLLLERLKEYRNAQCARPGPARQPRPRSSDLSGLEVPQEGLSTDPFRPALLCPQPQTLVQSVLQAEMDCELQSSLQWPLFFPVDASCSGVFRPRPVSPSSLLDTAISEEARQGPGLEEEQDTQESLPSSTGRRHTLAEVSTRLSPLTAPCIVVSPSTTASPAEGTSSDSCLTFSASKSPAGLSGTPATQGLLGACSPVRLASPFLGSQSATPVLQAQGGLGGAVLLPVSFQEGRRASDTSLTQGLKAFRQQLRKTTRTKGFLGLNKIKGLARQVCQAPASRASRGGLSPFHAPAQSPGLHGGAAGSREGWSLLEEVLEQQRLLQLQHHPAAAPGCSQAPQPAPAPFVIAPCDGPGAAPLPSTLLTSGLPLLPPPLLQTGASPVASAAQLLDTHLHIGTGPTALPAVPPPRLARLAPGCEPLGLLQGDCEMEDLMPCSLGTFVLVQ
Tyrosine-protein kinase Tec (Homo sapiens), sequence (P42680 whole entry): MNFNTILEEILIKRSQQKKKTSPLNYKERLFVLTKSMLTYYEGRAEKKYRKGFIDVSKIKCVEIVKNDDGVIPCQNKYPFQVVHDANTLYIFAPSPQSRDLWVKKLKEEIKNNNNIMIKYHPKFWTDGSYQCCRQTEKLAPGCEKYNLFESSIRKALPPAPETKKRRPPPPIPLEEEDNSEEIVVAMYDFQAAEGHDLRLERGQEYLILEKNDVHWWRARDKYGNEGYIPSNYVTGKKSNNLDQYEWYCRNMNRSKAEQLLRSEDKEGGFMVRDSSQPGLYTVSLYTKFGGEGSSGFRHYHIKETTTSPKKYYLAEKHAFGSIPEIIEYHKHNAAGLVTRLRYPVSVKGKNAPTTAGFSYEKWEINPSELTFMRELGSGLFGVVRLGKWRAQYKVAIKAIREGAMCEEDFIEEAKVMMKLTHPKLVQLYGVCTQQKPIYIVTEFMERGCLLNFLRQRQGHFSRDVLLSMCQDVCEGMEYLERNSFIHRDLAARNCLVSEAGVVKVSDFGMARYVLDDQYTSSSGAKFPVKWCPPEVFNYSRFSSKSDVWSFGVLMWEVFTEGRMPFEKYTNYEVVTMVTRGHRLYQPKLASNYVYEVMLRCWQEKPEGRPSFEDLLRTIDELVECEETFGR
Serine/threonine-protein kinase 36 (Homo sapiens), sequence (Q9NRP7 whole entry): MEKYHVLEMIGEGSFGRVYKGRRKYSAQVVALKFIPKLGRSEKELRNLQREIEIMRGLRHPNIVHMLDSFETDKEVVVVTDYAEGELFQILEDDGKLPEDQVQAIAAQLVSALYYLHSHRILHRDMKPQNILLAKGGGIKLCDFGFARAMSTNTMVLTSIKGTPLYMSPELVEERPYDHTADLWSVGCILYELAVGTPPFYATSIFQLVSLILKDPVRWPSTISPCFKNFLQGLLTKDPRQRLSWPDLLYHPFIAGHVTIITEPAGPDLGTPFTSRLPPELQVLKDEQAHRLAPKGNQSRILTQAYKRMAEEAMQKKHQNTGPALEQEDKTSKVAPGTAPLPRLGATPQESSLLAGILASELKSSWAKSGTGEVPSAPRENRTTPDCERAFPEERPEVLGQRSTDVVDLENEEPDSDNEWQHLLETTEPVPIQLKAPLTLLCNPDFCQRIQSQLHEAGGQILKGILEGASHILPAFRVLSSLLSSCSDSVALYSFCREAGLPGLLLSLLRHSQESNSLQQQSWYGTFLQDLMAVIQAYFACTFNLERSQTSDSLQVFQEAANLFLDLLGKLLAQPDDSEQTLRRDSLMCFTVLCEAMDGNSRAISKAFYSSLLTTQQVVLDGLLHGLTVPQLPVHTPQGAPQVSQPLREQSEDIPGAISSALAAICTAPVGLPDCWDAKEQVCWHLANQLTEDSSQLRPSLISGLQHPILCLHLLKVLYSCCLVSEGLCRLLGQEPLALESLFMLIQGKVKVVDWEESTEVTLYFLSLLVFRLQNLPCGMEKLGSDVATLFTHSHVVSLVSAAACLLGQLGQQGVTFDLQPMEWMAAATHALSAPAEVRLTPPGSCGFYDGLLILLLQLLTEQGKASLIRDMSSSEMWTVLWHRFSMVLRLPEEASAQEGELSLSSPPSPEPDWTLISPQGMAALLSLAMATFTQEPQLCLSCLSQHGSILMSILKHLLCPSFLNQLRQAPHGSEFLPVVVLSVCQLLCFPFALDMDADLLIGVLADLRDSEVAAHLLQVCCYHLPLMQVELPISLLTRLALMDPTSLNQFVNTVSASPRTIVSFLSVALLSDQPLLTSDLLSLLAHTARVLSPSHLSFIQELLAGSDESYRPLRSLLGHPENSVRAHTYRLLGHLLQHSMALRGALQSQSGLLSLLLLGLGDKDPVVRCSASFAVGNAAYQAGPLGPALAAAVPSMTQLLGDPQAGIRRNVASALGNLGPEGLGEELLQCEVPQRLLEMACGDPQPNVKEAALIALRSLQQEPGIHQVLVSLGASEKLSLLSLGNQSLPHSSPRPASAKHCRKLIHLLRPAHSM
TGF-beta receptor type-2 (Homo sapiens), sequence (P37173 whole entry): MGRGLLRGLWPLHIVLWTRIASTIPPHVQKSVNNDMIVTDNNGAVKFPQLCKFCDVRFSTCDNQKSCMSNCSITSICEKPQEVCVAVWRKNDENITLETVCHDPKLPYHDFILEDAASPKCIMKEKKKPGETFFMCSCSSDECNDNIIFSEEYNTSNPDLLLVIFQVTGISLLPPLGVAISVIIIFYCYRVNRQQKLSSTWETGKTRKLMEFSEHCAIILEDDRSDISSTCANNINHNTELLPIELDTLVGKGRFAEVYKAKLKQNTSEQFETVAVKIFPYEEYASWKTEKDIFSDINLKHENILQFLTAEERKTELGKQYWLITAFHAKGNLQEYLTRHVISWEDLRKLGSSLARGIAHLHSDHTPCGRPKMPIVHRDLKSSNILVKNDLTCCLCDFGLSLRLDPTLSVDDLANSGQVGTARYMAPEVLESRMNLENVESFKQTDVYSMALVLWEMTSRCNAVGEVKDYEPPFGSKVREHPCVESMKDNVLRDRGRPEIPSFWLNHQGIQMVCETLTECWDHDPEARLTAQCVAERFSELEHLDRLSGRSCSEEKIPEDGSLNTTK
Translocator protein (Rattus norvegicus), sequence (P16257 whole entry, looked up, the tested form may be a part): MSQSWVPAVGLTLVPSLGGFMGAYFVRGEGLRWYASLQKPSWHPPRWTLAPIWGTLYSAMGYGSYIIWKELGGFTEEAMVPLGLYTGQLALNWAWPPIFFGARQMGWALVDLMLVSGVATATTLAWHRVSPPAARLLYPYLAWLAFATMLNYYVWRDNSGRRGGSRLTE

Q: `CCCOc1ccc([C@@H]2[C@@H](C(=O)O)[C@H](c3ccc4c(c3)OCO4)CN2CC(=O)Nc2c(CC)cccc2CC)cc1` [A-1806262] was tested. Which residual activity [1] did it give?
A: 96%

Q: What about the residual activity [2] of the same compound?
A: 91%

Q: And the residual activity [3]?
A: 100%

Q: What about the residual activity [4] of the same compound?
A: 81%

Q: What about the residual activity [5] of the same compound?
A: 83%

Q: And the residual activity [6]?
A: 92%

Q: And the % Inhibition of Control Specific Binding (Mean n=2) [7]?
A: -7.1%

Q: And the % Inhibition of Control Specific Binding (Mean n=2) [8]?
A: 18.3%

Q: What about the residual activity [9] of the same compound?
A: 96%

Q: And the residual activity [10]?
A: 81%

Q: What about the residual activity [11] of the same compound?
A: 96%

Q: And the residual activity [12]?
A: 99%

Q: What about the residual activity [13] of the same compound?
A: 95%

Q: What about the residual activity [14] of the same compound?
A: 77%

Q: And the residual activity [15]?
A: 55%

Q: And the % Inhibition of Control Specific Binding (Mean n=2) [16]?
A: 1.2%

Q: What about the residual activity [17] of the same compound?
A: 97%

Q: And the % Inhibition of Control Specific Binding (Mean n=2) [18]?
A: -0.3%

Q: What about the residual activity [19] of the same compound?
A: 74%

Q: And the residual activity [20]?
A: 89%

Q: What about the % Inhibition of Control Specific Binding (Mean n=2) [21] of the same compound?
A: -1.6%

Q: And the residual activity [22]?
A: 71%

Q: And the residual activity [23]?
A: 87%

Q: What about the residual activity [24] of the same compound?
A: 97%

Q: What about the residual activity [25] of the same compound?
A: 72%

Q: And the residual activity [26]?
A: 83%

Q: And the residual activity [27]?
A: 100%

Q: What about the % Inhibition of Control Specific Binding (Mean n=2) [28] of the same compound?
A: -0.6%

Q: What about the residual activity [29] of the same compound?
A: 96%

Q: What about the residual activity [30] of the same compound?
A: 88%

Q: What about the residual activity [31] of the same compound?
A: 96%

Q: And the residual activity [32]?
A: 81%

Q: What about the residual activity [33] of the same compound?
A: 100%

Q: And the residual activity [34]?
A: 79%

Q: What about the residual activity [35] of the same compound?
A: 87%

Q: What about the residual activity [36] of the same compound?
A: 69%

Q: And the % Inhibition of Control Specific Binding (Mean n=2) [37]?
A: 54.7%

Q: What about the residual activity [38] of the same compound?
A: 74%

Q: And the residual activity [39]?
A: 100%

Q: `CCCOc1ccc([C@H]2[C@H](C(=O)O)[C@@H](c3ccc4c(c3)OCO4)CN2CC(=O)Nc2c(CC)cccc2CC)cc1` [A-192621] was tested. Which residual activity [1] did it give?
A: 76%

Q: What about the residual activity [2] of the same compound?
A: 74%

Q: What about the residual activity [3] of the same compound?
A: 90%

Q: What about the residual activity [4] of the same compound?
A: 59%

Q: And the residual activity [5]?
A: 71%

Q: What about the residual activity [6] of the same compound?
A: 92%

Q: And the % Inhibition of Control Specific Binding [7]?
A: -2.4%

Q: And the % Inhibition of Control Specific Binding (Mean n=2) [8]?
A: 23.6%

Q: What about the residual activity [9] of the same compound?
A: 89%

Q: And the residual activity [10]?
A: 74%

Q: And the residual activity [11]?
A: 94%

Q: And the residual activity [12]?
A: 100%

Q: What about the residual activity [13] of the same compound?
A: 80%

Q: And the residual activity [14]?
A: 100%

Q: And the residual activity [15]?
A: 29%

Q: And the % Inhibition of Control Specific Binding (Mean n=2) [16]?
A: 3.4%

Q: What about the residual activity [17] of the same compound?
A: 87%

Q: And the % Inhibition of Control Specific Binding (Mean n=2) [18]?
A: -6.1%

Q: What about the residual activity [19] of the same compound?
A: 84%

Q: What about the residual activity [20] of the same compound?
A: 71%

Q: And the % Inhibition of Control Specific Binding (Mean n=2) [21]?
A: 15.4%

Q: And the residual activity [22]?
A: 81%

Q: What about the residual activity [23] of the same compound?
A: 75%

Q: What about the residual activity [24] of the same compound?
A: 98%

Q: What about the residual activity [25] of the same compound?
A: 71%

Q: And the residual activity [26]?
A: 90%

Q: What about the residual activity [27] of the same compound?
A: 100%

Q: What about the % Inhibition of Control Specific Binding (Mean n=2) [28] of the same compound?
A: -11.3%

Q: What about the residual activity [29] of the same compound?
A: 100%

Q: What about the residual activity [30] of the same compound?
A: 98%

Q: What about the residual activity [31] of the same compound?
A: 95%

Q: And the residual activity [32]?
A: 68%

Q: What about the residual activity [33] of the same compound?
A: 100%

Q: What about the residual activity [34] of the same compound?
A: 75%

Q: What about the residual activity [35] of the same compound?
A: 70%

Q: What about the residual activity [36] of the same compound?
A: 65%

Q: What about the % Inhibition of Control Specific Binding (Mean n=2) [37] of the same compound?
A: 72.1%

Q: What about the residual activity [38] of the same compound?
A: 71%

Q: What about the residual activity [39] of the same compound?
A: 100%
